In brackets after ≈: the same amount, converted by molar mass.

One series has as its system PDE-4. The experiment in a line: Phosphodiesterase 4 assay ([3H]cAMP SPA), enzyme preparation from rat heart. Particulars: 0.1-20 μg/ml, compared with rolipram (FIG. 2). Type of series: biochemical.
Series [1] deals with Intercellular Adhesion Molecule type 1 (ICAM-1). The experiment in a line: Cell-ELISA, TNF-α induced ICAM-1 expression on HUVECs. Type of series: cell-based. Particulars: Homo sapiens, HUVEC; HUVECs pretreated 2 hours, TNF-α 16 hours. As for the experimental part:
(§1) FIG. 4. Inhibition of TNF-α induced expression Intercellular Adhesion Molecule type 1 (ICAM-1) and Vascular Cell Adhesion Molecule type 1 (VCAM-1) on HUVECs by IICT-TA67. To determine the effect of IICT-TA67 on TNF-α induced cell adhesion molecules such as ICAM-1 and VCAM-1, HUVECs were pretreated with various concentrations of IICT-TA67 for 2 hours followed by induction with TNF-α for 16 hours. The cell surface expression of cell adhesion molecules was measured by ELISA.
(§2) Cell-ELISA was used for measuring the expression of ICAM-1 on surface of endothelial cells. Endothelial cells were incubated with or without IICT-TA67 at desired concentrations for the required period, followed by treatment with TNF-α (10 ng/ml) for 16 h for ICAM-1 and VCAM-1 expression. The cells were fixed with 1.0% glutaraldehyde. Non-specific binding of antibody was blocked by using skimmed milk (3.0% in PBS). Cells were incubated overnight at 4° C. with anti-ICAM-1 mAb anti-VCAM-1 antibody, diluted in blocking buffer, the cells were further washed with PBS and incubated with peroxidase-conjugated goat anti-mouse secondary Abs. […] Reaction was stopped by the addition of 2 N sulfuric acid and absorbance at 490 nm was measured using microplate reader (Spectramax 190, Molecular Devices, USA).
(An ELISA detects its analyte on a solid surface through an enzyme-linked reagent.)

Series [2] concerns Vascular Cell Adhesion Molecule type 1 (VCAM-1). The experiment in a line: Cell-ELISA, TNF-α induced VCAM-1 expression on HUVECs. Format: cell-based. Particulars: Homo sapiens, HUVEC; HUVECs pretreated 2 hours, TNF-α 16 hours. How it is done: as §1, §2
Series [3] in a line: Balb/c 3T3 Neutral Red Uptake (NRU) cytotoxicity assay. Type of series: cell-based. The following applies: mouse. An excerpt: (§3) FIG. 8. IICT-TA67 is not toxic. To evaluate the cytotoxicity of test chemical (IICT-TA67) BALB/c 3T3 cell line was used for Neutral Red Uptake (NRU) cytotoxicity test. The test result has been used to determine IC50 for IICT-TA67 and acute oral toxicity (LD50) in rodent was predicted.
(§4) Basal cytotoxicity of IICT-TA67 has been performed to measure IC50 and thereafter predict in vivo acute oral LD50 values in rodent by using Halle's Registry of cytotoxicity (RC) prediction model: log (LD50)=0.435×log (IC50)+0.625 (Halle, 1998; Spielmann et al., 1999). Balb/c 3T3 Neutral Red Dye Uptake (NRU) cytotoxicity assay procedure was adopted (Liebsch & Spielmann 1995). In brief 3T3 cell were grown in 96 well microtitre plates and exposed to IICT-TA-67. After 48-hour incubation, the test material was removed and Neutral red (NR) solution was applied to the cells. The cells were incubated again, the excess NR solution was removed and finally NR was eluted from the cells. The NRU was determined by using a microtitre plate reader to measure the optical density at 540 nm of the eluted dye in 96 well plate. A calculation of cell viability expressed as NRU was made for each concentration of the test chemical by using the mean NRU of 6 replicate values per test concentration. The cell viability value was compared with the mean NRU of all vehicle control values and relative cell viability was then expressed as percent of untreated vehicle control. […] Although the percentage of viability is slightly more than 95% at 50 μg/ml of IICT-67, 30 μg/ml (% viability of cells is 98%)

A further series concerns BALB/c 3T3 cell line. The series is described as above. Format: cell-based. Particulars: for toxicity: NRU cytotoxicity test (FIG. 8).
Description: as §3, §4

Consider `COc1ccc(C(c2[nH]c3ccccc3c2CC(=O)O)c2[nH]c3ccccc3c2CC(=O)O)cc1Oc1nc(NC2CC2)nc(NC2CC2)n1` [Compound 7, 2,2′-[2,2′-3-(4,6-bis-cyclopropylamino)-1,3,5-triazin-2-yl-oxy-4-methoxy-phenyl]-methylene-bis-(1H-indole-3,3-diyl)-diacetic acid], for which, in the series on PDE-4, the “inhibition of PDE4 activity” value is “inhibited PDE4 activity in a dose dependent manner”. Besides, the values for the IC50 in series [1] and in series [2] were 10.6 µg/mL (≈ 15.7 µM) and 16.6 µg/mL (≈ 24.6 µM), respectively. The compound further showed an IC50 at 48 h in series [3] of 32 µg/mL (≈ 47.5 µM). Further, the “% viability of cells” value in the series on BALB/c 3T3 cell line (30 μg/ml) is 98%. The percentage of viability entry with BALB/c 3T3 cell line (50 μg/ml) is “more than 95%”. Besides, the “toxicity” value in the series on BALB/c 3T3 cell line (listed as IICT-67) is “does not seem to be toxic to endothelial cells”; in the series with BALB/c 3T3 cell line (listed as IICT-TA67), “not toxic”.

A word on the IC50: it is the point on the concentration scale where inhibition reaches its midpoint.

The values are drawn from patent publication US9085559B2, “Triazine-aryl-bis-indoles and process for preparation thereof” (COUNCIL OF SCIENTIFIC & INDUSTRIAL RESEARCH, priority 2010, dated 2015).
